Measured values from patent EP3958980B1, “TARGETED NOVEL TRIAZOLOTHIADIAZINE DERIVATIVES FOR THE TREATMENT OF LUNG CANCER” (Anadolu Universitesi, priority 2020, dated 2021).
Several values for one entry are separate records, joined by “and”; a condition that tells them apart may be missing. Equal values may be shown once.

Tests used:
COX-1 = biological target: T1, COX-1 (Homo sapiens, UniProt P23219); test: COX activity assay (colorimetric kit) on lysates of treated A549 cells, COX-1; assay type: cell-based; details: 24 hours incubation, IC50 concentrations
T1 construct: endogenous in cells; host or cells: A549
Description: (§1) The intracellular COX, Akt and ROCK inhibitory effects of the active compounds determined with the MTT assay, were measured with the colorimetric assay according to the manufacturer's recommendations.
(§2) COX activity was carried out using Cayman COX activity assay kit in compliance with the manufacturer's recommendations. Briefly, 150 µL of each sample was kept in boiling water for 5 minutes and centrifuged at 8000 × g for 1 minute and it was used to obtain background values. […] 110 µL assay solution, 10 µL hemin and 40 µL sample, 10 µL DuP-697 or SC-560 was added to the inhibitor wells (DuP-697 inhibits COX-2 activity; while SC-560 inhibits COX-1 activity). The plate was shaked for a few seconds and it was left at 25 °C for 5 minutes. 20 µL colorimetric substrate was added to all wells. Moreover, a reaction was started by adding 20 µL arachidonic acid solution and the plate was shaked for a few seconds and it was left at 25 °C for 5 minutes. The absorbance values were read at 540 nm.

A549 cells [1] = test: JC-1 staining, mitochondrial membrane integrity by flow cytometry; assay type: cell-based, human; details: 24 hours, IC50 concentrations
Description: After the active compounds were determined with the MTT assay, the determination of mitochondrial membrane integrity in A549 cells depending on IC50 concentrations were carried out in flow cytometry with BD, Pharmingen flow cytometry kit according to the manufacturer's recommendations. Briefly, the cells were seeded with optimal density (must not exceed 1×10^6 cell/mL). Following this, the cells were incubated with concentrations and time suitable for the compounds to be tested. After treatment, each cell suspension was transferred into a 15 mL polystyrene centrifuge tube and the cells were centrifuged at 400 × g for 5 minutes at room temperature, and supernatant was removed. Later, 0.5 mL freshly prepared working solution was added to each pellet and was vortexed. The cells were incubated in JC-1 working solution at 37 °C for 10-15 minutes and they were washed twice. In the first wash, 2 mL 1X assay buffer was added and the cells were precisely suspended. Following this, the cells were centrifuged at 400 × g for 5 minutes and the supernatant was removed carefully. In the next wash, 1 mL 1X assay buffer was added and was vortexed. After the cells were centrifuged at 400 × g for 5 minutes, each cell pellet was suspended in a 0.5 mL 1X assay buffer and was vortexed. Finally, the cell is analyzed with flow cytometry.

A549 cells [2] = test: Cell cycle arrest by flow cytometry; assay type: cell-based, human; details: IC50 doses, 24 hours
Description: After the active compounds were determined with the MTT assay, their effects on the cell cycle in A549 cells depending on IC50 concentrations were carried out according to the manufacturer's recommendations. Briefly, the cells were suspended in a citrate buffer solution. The cells were centrifuged at 400 × g for 5 minutes at room temperature. The supernatant was removed and 250 µL solution A was added on the pellet. Following this, 200 µL solution B was added and it was kept at room temperature 10 minutes. Afterwards 200 µL solution C was added and it was kept at +4 °C for 10 minutes. The cells were analyzed with flow cytometry using BD Biosciences ModFit software.

COX-2 = biological target: T2, COX-2 (Homo sapiens, UniProt P35354); test: COX activity assay (colorimetric kit) on lysates of treated A549 cells, COX-2; assay type: cell-based; details: 24 hours incubation, IC50 concentrations
T2 construct: endogenous in cells; host or cells: A549
T2 sequence (P35354 18-604): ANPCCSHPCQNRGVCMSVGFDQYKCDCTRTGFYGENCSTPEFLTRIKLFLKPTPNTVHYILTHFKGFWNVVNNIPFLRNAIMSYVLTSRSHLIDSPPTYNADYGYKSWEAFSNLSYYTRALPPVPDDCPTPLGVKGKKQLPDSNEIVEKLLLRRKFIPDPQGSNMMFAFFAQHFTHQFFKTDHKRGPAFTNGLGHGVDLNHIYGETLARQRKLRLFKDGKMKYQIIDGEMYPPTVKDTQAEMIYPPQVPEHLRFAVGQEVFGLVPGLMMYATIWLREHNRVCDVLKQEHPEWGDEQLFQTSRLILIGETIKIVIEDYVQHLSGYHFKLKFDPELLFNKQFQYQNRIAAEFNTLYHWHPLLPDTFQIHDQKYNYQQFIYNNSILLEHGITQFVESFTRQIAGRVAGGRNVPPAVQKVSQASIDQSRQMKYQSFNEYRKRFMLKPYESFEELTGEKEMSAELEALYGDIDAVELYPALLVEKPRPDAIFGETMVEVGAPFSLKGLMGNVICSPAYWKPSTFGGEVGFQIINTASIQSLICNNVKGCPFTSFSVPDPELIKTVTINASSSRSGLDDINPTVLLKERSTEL
Description: as §1, §2

caspase-3 = test: Caspase-3 activity by flow cytometry; assay type: cell-based, human; details: A549 cells, 24 hours, IC50 concentrations
Description: After the active compounds were determined with the MTT assay, their caspase-3 activities on A549 cells depending on IC50 concentrations were determined in flow cytometry with BD, Pharmingen flow cytometry kit according to the manufacturer's recommendations. Briefly, the cells were incubated at the determined doses and times with the compounds. The cells were washed twice with cold 1 X PBS. These cells were suspended with BD Cytofix/Cytoperm solution (1×10^6 cell / 0.5 mL). Then they were left to wait on ice for 20 minutes. After centrifugation, the cells were removed with the BD Cytofix/Cytoperm solution. The cells were washed twice with BD Perm/Wash™ buffer (1×10^6 cell/0.5 mL). Afterwards the cells were re-suspended with BD Perm/Wash™ buffer and antibodies and they were kept at room temperature for 30 minutes. For each test, the cells were washed in 1 mL BD Perm/Wash^TM buffer and were suspended in 0.5 mL BD Perm/Wash^TM buffer and they were analyzed with flow cytometry.

T1 sequence (P23219 24-599): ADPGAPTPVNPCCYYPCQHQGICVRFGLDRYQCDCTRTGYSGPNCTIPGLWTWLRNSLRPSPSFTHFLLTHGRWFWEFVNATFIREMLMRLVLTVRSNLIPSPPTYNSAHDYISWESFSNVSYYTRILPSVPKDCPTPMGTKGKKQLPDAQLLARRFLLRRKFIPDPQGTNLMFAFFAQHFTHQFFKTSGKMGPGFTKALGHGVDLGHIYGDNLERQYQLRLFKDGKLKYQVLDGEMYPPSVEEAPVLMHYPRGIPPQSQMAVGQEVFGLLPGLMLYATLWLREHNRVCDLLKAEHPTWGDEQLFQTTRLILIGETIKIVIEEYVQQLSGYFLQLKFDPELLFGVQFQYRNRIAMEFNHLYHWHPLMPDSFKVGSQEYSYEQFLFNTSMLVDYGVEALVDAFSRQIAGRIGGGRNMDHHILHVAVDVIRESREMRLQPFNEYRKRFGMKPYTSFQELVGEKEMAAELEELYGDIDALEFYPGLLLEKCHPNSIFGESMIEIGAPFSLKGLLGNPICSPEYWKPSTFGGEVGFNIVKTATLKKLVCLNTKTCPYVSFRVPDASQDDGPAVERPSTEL

SMILES: N.N.[Cl][Pt][Cl] [Cisplatin, reference compound]
- COX-1 Inhibition% (COX-1): 24.65%
- COX-1 activity (U/mL) (COX-1): 3.08 U/mL
- Mitochondrial membrane depolarized (P2) cells% (A549 cells [1]): 48.00%
- Mitochondrial membrane polarized (P1) cells% (A549 cells [1]): 52.40%
- G0/G1% (A549 cells [2]): 45.92%
- G2/M% (A549 cells [2]): 4.00%
- S% (A549 cells [2]): 50.07%
- COX-2 Inhibition% (COX-2): 43.46%
- COX-2 activity (U/mL) (COX-2): 2.38 U/mL
- Caspase-3 negative (-) cells% (caspase-3): 89.70%
- Caspase-3 positive (+) cells% (caspase-3): 10.30%

SMILES: CS(=O)(=O)c1ccc(C2=Nn3c(CCc4ccc5c(c4)OCO5)nnc3SC2)cc1 [Compound 9]
- COX-1 Inhibition% (COX-1): 35.21%
- COX-1 activity (U/mL) (COX-1): 3.41 U/mL
- Mitochondrial membrane depolarized (P2) cells% (A549 cells [1]): 8.80%
- Mitochondrial membrane polarized (P1) cells% (A549 cells [1]): 91.10%
- G0/G1% (A549 cells [2]): 53.29%
- G2/M% (A549 cells [2]): 9.66%
- S% (A549 cells [2]): 37.04%
- COX-2 Inhibition% (COX-2): 32.66%
- COX-2 activity (U/mL) (COX-2): 3.60 U/mL
- Caspase-3 negative (-) cells% (caspase-3): 96.70%
- Caspase-3 positive (+) cells% (caspase-3): 3.40%

SMILES: FC(F)(F)c1ccc(C2=Nn3c(CCc4ccc5c(c4)OCO5)nnc3SC2)cc1 [Compound 11, 3-[2-(1,3-Benzodioxole-5-yl)ethyl]-6-(4-trifluoromethylphenyl)-7H-[1,2,4]triazolo [3,4-b][1,3,4]thiadiazine]
- COX-1 Inhibition% (COX-1): 54.18%
- COX-1 activity (U/mL) (COX-1): 1.88 U/mL
- Mitochondrial membrane depolarized (P2) cells% (A549 cells [1]): 58.80%
- Mitochondrial membrane polarized (P1) cells% (A549 cells [1]): 41.30%
- G0/G1% (A549 cells [2]): 57.29%
- G2/M% (A549 cells [2]): 8.15%
- S% (A549 cells [2]): 34.57%
- COX-2 activity (U/mL) (COX-2): 1.46 U/mL
- Caspase-3 negative (-) cells% (caspase-3): 97.00%
- Caspase-3 positive (+) cells% (caspase-3): 3.10%

SMILES: Fc1cccc(C2=Nn3c(CCc4ccc5c(c4)OCO5)nnc3SC2)c1 [Compound 12, 3-[2-(1,3-Benzodioxole-5-yl)ethyl]-6-(3-fluorophenyl)-7H-[1,2,4]triazolo [3,4-b] [1,3,4]thiadiazine]
- COX-1 activity (U/mL) (COX-1): 2.51 U/mL
- Mitochondrial membrane depolarized (P2) cells% (A549 cells [1]): 47.00%
- Mitochondrial membrane polarized (P1) cells% (A549 cells [1]): 53.00%
- G0/G1% (A549 cells [2]): 54.20%
- G2/M% (A549 cells [2]): 6.52%
- S% (A549 cells [2]): 39.28%
- COX-2 Inhibition% (COX-2): 53.52%
- COX-2 activity (U/mL) (COX-2): 1.95 U/mL
- Caspase-3 negative (-) cells% (caspase-3): 97.80%
- Caspase-3 positive (+) cells% (caspase-3): 2.40%

SMILES: c1ccc(-c2ccc(C3=Nn4c(CCc5ccc6c(c5)OCO6)nnc4SC3)cc2)cc1 [Compound 14, 3-[2-(1,3-Benzodioxole-5-yl)ethyl]-6-(biphenyl-4-yl)-7H-[1,2,4]triazolo[3,4-b] [1,3,4]thiadiazine]
- COX-1 Inhibition% (COX-1): 2.19%
- COX-1 activity (U/mL) (COX-1): 4.15 U/mL
- Mitochondrial membrane depolarized (P2) cells% (A549 cells [1]): 47.20%
- Mitochondrial membrane polarized (P1) cells% (A549 cells [1]): 53.20%
- G0/G1% (A549 cells [2]): 54.92%
- G2/M% (A549 cells [2]): 7.91%
- S% (A549 cells [2]): 37.17%
- COX-2 Inhibition% (COX-2): 15.17% and 15.70%
- COX-2 activity (U/mL) (COX-2): 3.56 U/mL
- Caspase-3 negative (-) cells% (caspase-3): 96.60%
- Caspase-3 positive (+) cells% (caspase-3): 3.70%
